The results in this text go back to patent publication US9937178B2, “Methods of identifying and using MDM2 inhibitors” (DUKE UNIVERSITY, priority 2011, dated 2018).

For one assay, the system named is AU565-derived tumor. As to the kind of experiment: AU565 mammary fat pad xenograft. Conditions: 100 mg/kg each drug, twice daily by oral gavage. It is filed as in vivo, mouse.
A further assay relates to BT474 xenografts. As to the kind of experiment: BT474 mammary fat pad xenograft. Conditions: 100 mg/kg each drug, twice daily by oral gavage.
A further assay has as its system rBT474 xenografts. As to the kind of experiment: rBT474 mammary fat pad xenograft. Conditions: 100 mg/kg each drug, twice daily by oral gavage.
The subject of a further assay is rAU565-derived tumor. As to the kind of experiment: rAU565 mammary fat pad xenograft. Conditions: 100 mg/kg each drug, twice daily by oral gavage.
For assay [1], the system named is Mcl-1. The assay can be described thus: Immunoblot of Mcl-1 protein levels. The class given is cell-based. Conditions: rSKBR3 cells, 1 μM lapatinib, 10 μM Nutlin-3a, 36 hours, z-VAD. How it is done: FIG. 3 is a set of photographs showing that Mcl-1 is stabilized in lapatinib-resistant cells. […] FIG. 3B is a set of immunoblots showing the levels of HER2 and phospho-HER2 in untreated cells and cells treated with lapatinib. Cells were treated with or without lapatinib (1 μM) for 24 hours in the presence of the caspase inhibitor z-VAD (50 μM). The cells were harvested and cell lysates were immunoblotted using antibodies against phospho-HER2 (Y877) and total HER2. FIG. 3C is an immunoblot for phospho-AKT (T308) and total AKT. BT474 and rBT474 cells were treated with 1 μM lapatinib in the presence of 50 μM z-VAD. At the indicated time points, the cells were harvested and immunoblotted. FIG. 3D is an immunoblot for phospho-Erl1/2(T202/Y204) and total Erk1/2. BT474 and rBT474 cells were treated with 1 μM lapatinib in the presence of 50 μM z-VAD. At the indicated time points, the cells were harvested and immunoblotted. FIG. 3E is an immunoblot for Mcl-1, Bim, and Actin. BT474 and rBT474 cells (left) or SKBR3 and rSKBR3 cells (right) were treated with 1 μM lapatinib. The cells were harvested at the indicated time points and immunoblotted. FIG. 3F is an autoradiograph showing the ^35[S] radioactivity in lysates containing ^35[S]-Mcl-1 at the indicated time points. ^35[S]-labeled Mcl-1 protein was incubated in cell-free lysates prepared from BT474 and rBT474 cells (top) or SKBR3 and rSKBR3 cells (bottom). FIG. 3G is an autograph showing the ^35[S]-labeled Mcl-1 to monitor Mcl-1 stability over time. The ^35[S]-labeled Mcl-1 was incubated in lysates prepared from rBT474 cells treated with or without 1 μM lapatinib. FIG. 3H is an immunoblot for HA. SKBR3 or rSKBR3 cells were co-transfected with FLAG-Mcl-1 and HA-Ubiquitin (Ub). […] Cells were harvested after treatment with 10 μM MG 132 for 4 hours. FLAG-Mcl-1 was retrieved by immunoprecipitation using anti-flag agarose, and Mcl-1 ubiquitylation was analyzed by immunoblotting for HA (*non-specific band, **IgG heavy chain).
(A western blot detects proteins with antibodies after separation by electrophoresis.)

In the next assay the test system is PP5. The assay can be described thus: Immunoblot of PP5 protein levels. It is filed as cell-based. Conditions: rSKBR3 cells, 1 μM lapatinib, 10 μM Nutlin-3a, 36 hours, z-VAD. How it is done:
FIG. 7 is a set of photographs and graphs showing PP5 stability and post-cytochrome c protection in lapatinib-resistant cells. FIG. 7A is an immunoblot for caspase-9 (cleaved and non-cleaved) and cleaved caspase-3 (C9 and C3, respectively) showing rBT474 cells cultured in the absence or presence of 1 μM lapatinib for one week, as compared to BT474 cells which were maintained without lapatinib. Cytosolic lysates prepared from BT474 or rBT474 were incubated with 1 mM dATP and various amounts of cytochrome c (CC). FIG. 7B is a set of graphs showing Caspase 3 activity in the indicated cell lysates over time. Caspase-3 activity was assayed by measuring cleavage of DEVD-pNA following incubation of the cell lysates with 1 mM dATP and various concentrations of cytochrome c. FIG. 7C is an autoradiograph of ^32P and an immunoblot showing the percentage of the protein phosphorylated. In the presence of [γ-^32P]ATP, recombinant His-tagged HSP90β proteins (wild type and the indicated mutants) on nickel beads were incubated with the HSP90β-targeted kinase casein kinase 2. FIG. 7D is an autoradiograph and corresponding immunoblot showing BT474 or rBT474 cells after being cultured in the absence or presence of 1 μM lapatinib for 24 hours in the presence of z-VAD. Recombinant His-tagged HSP90β protein on nickel beads was incubated with the cell lysates in the presence of [γ-^32P]ATP. FIG. 7E is an immunoblot for phospho-Hsp90β (Ser226) and total HSP90β at various time points. […] FIG. 7F is a set of graphs showing FACS analysis for the phosphorylation status of Hsp90β (Ser255). BT474 or rBT474 cells cultured in the presence of 1 μM lapatinib for 24 hours were fixed with formaldehyde and incubated with phospho-Hsp90β (Ser255) antibody followed by an Alexa488-conjugated secondary antibody. FIG. 7G is an immunoblot for PP5 and actin at the indicated time points. BT474 and rBT474 (left) or AU565 and rAU565 cells (right) were treated with 1 μM lapatinib. FIG. 7H is an autoradiograph of immunoprecipitated FLAG-PP5 using an anti-FLAG agarose. […]

The test system of a further assay is CAS. The assay can be described thus: Immunoblot of CAS protein levels. The class given is cell-based. Conditions: rSKBR3 cells, 1 μM lapatinib, 10 μM Nutlin-3a, 36 hours, z-VAD. How it is done: FIG. 11 is a set of photographs of immunoblots showing CAS degradation in lapatinib-resistant cells. FIG. 11A is an immunoblot for CAS and Actin. BT474 and rBT474 (left) or AU565 and rAU565 cells (right) cultured in the absence of lapatinib for one week were treated with 1 μM lapatinib and the cells were harvested at various time points. FIG. 11B is an immmunoblot for CAS and Actin. rBT474 cells were maintained in the presence of […] lapatinib and the cells were harvested at various time points following removal of lapatinib. FIG. 11C is an immunoblot for FLAG and actin. BT474 and rBT474 cells were transiently transfected with FLAG-tagged CAS and subsequently treated with 50 μg/ml cycloheximide (CHX) and 1 μM lapatinib and the cells were harvested at various time points. FIG. 11D is an immunoblot using HA to analyze ubiquitination of CAS. BT474 and rBT474 (left) or SKBR3 and rSKBR3 cells (right) were co-transfected with FLAG-CAS and HA-Ub. […] After treatment with 10 μM MG 132 for 8 hours, cells were harvested and FLAG-CAS was retrieved by immunoprecipitation. FIG. 11E is an immunoblot for FLAG-tagged proteins retrieved by immunoprecipitation and association with MDM2. H1299 cells were transfected with empty vector, FLAG-CAS^W127A, or FLAG-CAS wild type. FIG. 11F is an immunoblot for CAs after immunoprecipitation for FLAG. H1299 cells were transfected with empty vector, FLAG-CAS^W127A, or FLAG-CAS wild type. Cells were treated with 10 μM MG132 for 3 hours. […] SKBR3 cells were transfected with increasing amounts of MDM2. After 48 hours, cells were harvested and immunoblotted (*non-specific band). FIG. 11H is an immunoblot for CAS. […] FIG. 11I is an immunoblot for MDM2 or CAs after immunoprecipitation with FLAG. BT474 and rBT474 cells were transfected with FLAG-CAS. […] After treatment with 10 μM MG132 for 5 hours, FLAG-CAS was retrieved by immunoprecipitation and association of endogenous MDM2 was analyzed by immunoblotting.

A further assay deals with Huwe1. As to the kind of experiment: Immunoblot of Huwe1 protein levels and stability. It is filed as cell-based. Conditions: rSKBR3 cells, 1 μM lapatinib, 10 μM Nutlin-3a, 36 hours, z-VAD. As to the method: FIG. 13 is a set of immunoblots showing MDM2-mediated ubiquitylation and degradation of Huwe1 in lapatinib-resistant cells. […] Cells treated with 1 μM lapatinib were harvested at various time points and immunoblotted. […] FIG. 13B is an immunoblot for HA and actin. BT474 and rBT474 cells were transiently transfected with HA-tagged Huwe1 and subsequently treated with 50 μg/ml cycloheximide (CHX) and 1 μM lapatinib. FIG. 13C is an immunoblot for Huwe1 and MDM2. Immunoprecipitation was carried out using H1299 cell lysates and anti-Huwe1 antibody (or control IgG). FIG. 13D is an immunoblot for HA or MDM2 after immunoprecipitation with HA. BT474 cells were transfected with HA-tagged Huwe1 encoding the full-length protein, residues 1-2474, or residues 2473-4374. […] H1299 cells were transfected with empty vector, HA-Huwe1^W1202A, or HA-Huwe1 wild type. FIG. 13F is an immunoblot for Huwe1 and Actin. BT474 cells were transfected with increasing amounts of MDM2 and harvested after 48 hours. FIG. 13G is an immunoblot for Huwe1, MDM2, and actin. […] FIG. 13H is an immunoblot for Huwe1. Ubiquitylation of Huwe1 was reconstituted in vitro by incubating recombinant Huwe1 protein (Huwe1^1-2474) with E1, UbcH5 (E2), ubiquitin (Ub), and recombinant MDM2 protein in reaction buffer at 37° C. for 3 hours. […] Twenty-four hours later, the cells were replated and further transfected with HA-tagged Huwe1 (wild type). Forty-eight hours after siRNA transfection, the cells were treated with 1 μM lapatinib. After 24 hours of lapatinib treatment, 50 μg/ml cycloheximide (CHX) was added to the culture medium and cells were harvested at various time points for immunoblotting.

Assay [2] has as its system Mcl-1. As to the kind of experiment: 35[S]-Mcl-1 degradation in cell-free lysates. It is filed as cell-based. Conditions: resistant cell lysates, 5 μM ubiquitin aldehyde. As to the method: FIG. 3 is a set of photographs showing that Mcl-1 is stabilized in lapatinib-resistant cells. […] FIG. 3B is a set of immunoblots showing the levels of HER2 and phospho-HER2 in untreated cells and cells treated with lapatinib. Cells were treated with or without lapatinib (1 μM) for 24 hours in the presence of the caspase inhibitor z-VAD (50 μM). The cells were harvested and cell lysates were immunoblotted using antibodies against phospho-HER2 (Y877) and total HER2. FIG. 3C is an immunoblot for phospho-AKT (T308) and total AKT. BT474 and rBT474 cells were treated with 1 μM lapatinib in the presence of 50 μM z-VAD. At the indicated time points, the cells were harvested and immunoblotted. FIG. 3D is an immunoblot for phospho-Erl1/2(T202/Y204) and total Erk1/2. BT474 and rBT474 cells were treated with 1 μM lapatinib in the presence of 50 μM z-VAD. At the indicated time points, the cells were harvested and immunoblotted. […] FIG. 3F is an autoradiograph showing the ^35[S] radioactivity in lysates containing ^35[S]-Mcl-1 at the indicated time points. ^35[S]-labeled Mcl-1 protein was incubated in cell-free lysates prepared from BT474 and rBT474 cells (top) or SKBR3 and rSKBR3 cells (bottom). […] FLAG-Mcl-1 was retrieved by immunoprecipitation using anti-flag agarose, and Mcl-1 ubiquitylation was analyzed by immunoblotting for HA (*non-specific band, **IgG heavy chain). […]

Procedure for rAU565-derived tumor: Six week-old female nude mice were purchased from NCI Frederic. Xenograft tumors were produced by injection into the mammary fat pad with cells (10×10^6). Tumor volumes were calculated every 3-4 days based on caliper measurements of the short (a) and long (b) tumor diameters (volume=a2b/2). […] Mice were dosed orally with vehicle alone, lapatinib (100 mg/kg), Nutlin-3 (100 mg/kg), or combination of both twice daily by gavage.
Procedure for rBT474 xenografts: Forty-eight hours after siRNA transfection, cells were treated with 1 μM lapatinib for 48 hours, and cells were harvested and subjected to Annexin V staining. The percentage of Annexin V-positive cells was analyzed by FACS. Results are expressed as a mean percentage±SEM and analyzed by t-test (*P<0.05). […] The oral administration of lapatinib (100 mg/kg, twice daily by oral gavage) began when the average tumor volume surpassed 300 mm^3. Results are expressed as a mean percentage±SEM. […] After 36 hours, cells were harvested and immunoblotted. […] BT474 and rBT474 cells were injected into the mammary fad pad of each mouse. When tumors developed to a size of 200 mm^3, the mice were randomly assigned to receive vehicle, lapatinib (100 mg/kg), Nutlin-3 (100 mg/kg), or Lapatinib+Nutlin-3 and treated twice daily by oral gavage. Results are expressed as a mean percentage±SEM. […] Percentage of apoptotic cell death was measured by FACS analysis using Annexin V. Results are expressed as a mean percentage±SEM of Annexin V-positive cells (*P<0.05 by t-test).
Six week-old female nude mice were purchased from NCI Frederic. Xenograft tumors were produced by injection into the mammary fat pad with cells (10×10^6). Tumor volumes were calculated every 3-4 days based on caliper measurements of the short (a) and long (b) tumor diameters (volume=a2b/2). […]

With `COc1ccc(C2=N[C@@H](c3ccc(Cl)cc3)[C@@H](c3ccc(Cl)cc3)N2C(=O)N2CCNC(=O)C2)c(OC(C)C)c1` [Nutlin-3], in the assay with AU565-derived tumor, the AU565-derived tumor growth result is recorded as “moderate tumor inhibitory effects”. The “growth of BT474-derived tumors” value in the assay on BT474 xenografts is on record as “only modestly inhibited”. For the same molecule, the rBT474-derived tumor growth result in the assay with rBT474 xenografts is listed as “Neither lapatinib nor Nutlin-3 inhibited”. In the assay on rAU565-derived tumor, the rAU565-derived tumor growth entry is “moderate tumor inhibitory effects”.
Take `COc1ccc(C2=N[C@@H](c3ccc(Cl)cc3)[C@@H](c3ccc(Cl)cc3)N2C(=O)N2CCNC(=O)C2)c(OC(C)C)c1` [Nutlin-3a]: the “lapatinib-induced upregulation of Mcl-1” value with Mcl-1 [1] is “suppressed”. In the assay on PP5, the “lapatinib-induced upregulation of PP5” value is “suppressed”. Moreover, the CAS degradation result with CAS is recorded as “significantly inhibited”. Further, the “lapatinib-induced degradation of Huwe1” value in the assay with Huwe1 was “prevented”.
On to ubiquitin aldehyde, for which the “degradation of 35[S]-Mcl-1” value in the assay on Mcl-1 [2] was “did not prevent the failure to degrade”.
